Counter-ions that a name gives are not always drawn. Like-named read-outs stand apart in the source and are kept apart here.

The test system of assay [1] is isolated auricle of guinea-pig. Description: isolated auricle of guinea-pig: antagonism of isoprenaline (PA2). The assay is classed as cell-based. Conditions: Cavia porcellus, agonist isoprenaline, PA2 = cologarithm of antagonist concentration requiring twice as much agonist. The text has this: (§1) The following Table gives the PA2 determined with respect to this agonist (PA2 is the cologarithm of the antagonist concentration in the presence of which it is required to use twice as much agonist than in its absence to obtain the same effect; vide, on the subject; Calcul des PA2, Fiche Technique n° 16, J. Pharmacol. Paris, 1971, 2, 3, 373-380).

The test system of assay [2] is isolated trachea of guinea-pig. Description: isolated trachea of guinea-pig: antagonism of isoprenaline relaxation (PA2). Particulars: Cavia porcellus, agonist isoprenaline, PA2 = cologarithm of antagonist concentration requiring twice as much agonist. The assay is classed as cell-based.
Source text: on the isolated trachea of guinea-pigs: they inhibit the relaxation due to the action of this same isoprenaline.
as §1

Another assay deals with action of isoprenaline. Description: inhibition of the action of isoprenaline on cardiac parameters in anesthetized dog. Conditions: Canis lupus familiaris, isoprenaline 0.02 micromole/kg. The class given is in vivo. The text has this: This beta-blocking activity is again apparent in vivo. […] The following Table sets forth the dosages which inhibit 50% of the effect of 0.02 micromole/kg of isoprenaline on blood pressure, on cardiac rhythm and on the contractile strength of the heart.

Setting [3] is: read-out: PA2 Chronotropic effect (converted).
[4] abbreviates: read-out: PA2 Inotropic effect (converted).
The mark [5] stands for this setting: blood pressure, read-out: 50% inhibiting dosage of the action of isoprenaline: Blood pressure.
[6] abbreviates: cardiac rhythm, read-out: 50% inhibiting dosage of the action of isoprenaline: Rhythm.
[7] abbreviates: contractile strength of the heart, read-out: 50% inhibiting dosage of the action of isoprenaline: Contractile strength.

Turning to `CC(=NOCC(O)CNC(C)(C)C)c1cccc(C)c1` (centres unmarked) [Example 26], the Kb in assay [1] (setting [3]) was 7.76 nM; in assay [1] (setting [4]), 7.94 nM; in assay [2] it was 5.01 nM.

For `CC(C)NCC(O)CON=C1CCc2ccccc21` (centres unmarked) [Example 12], the Kb is 363 nM in assay [1] (setting [3]) and 513 nM in assay [1] (setting [4]).

Turning to `CC(=NOCC(O)CNC(C)(C)C)c1ccc(N)cc1` (centres unmarked) [Example 27], the Kb in assay [1] (setting [3]) is 22.9 nM; in assay [1] (setting [4]) it was 14.5 nM; in assay [2], 79.4 nM.

Consider `CC(=NOCC(O)CNC(C)(C)C)c1ccc(C#N)cc1` (centres unmarked) [Example 31], for which the figures for the Kb in assay [1] (setting [3]), in assay [1] (setting [4]) and in assay [2] were 120 nM, 123 nM and 102 nM, respectively.

For the molecule `CC(C)(C)NCC(O)CON=Cc1ccccc1` (centres unmarked) [Example 19], the results for the Kb in assay [1] (setting [3]), in assay [1] (setting [4]) and in assay [2] were 550 nM, 269 nM and 589 nM, respectively.

Take `COc1ccc(C(C)=NOCC(O)CNC(C)(C)C)cc1` (centres unmarked) [Example 22]: the figures for the Kb in assay [1] (setting [3]), in assay [1] (setting [4]) and in assay [2] were 14.1 nM, 11.5 nM and 1.82 nM, respectively.

With `CC(=NOCC(O)CNC(C)(C)C)c1ccc([N+](=O)[O-])cc1` (centres unmarked) [Example 23], the Kb in assay [1] (setting [3]) is 34.7 nM; in assay [1] (setting [4]) it was 25.1 nM; in assay [2], 28.8 nM. Moreover, the ED50 turned out to be 0.1 µmol/kg in the assay with action of isoprenaline (setting [5]), 3 µmol/kg in the assay on action of isoprenaline (setting [6]) and 3 µmol/kg with action of isoprenaline (setting [7]).

As for `CC(=NOCC(O)CNC(C)(C)C)c1ccccc1Cl` (centres unmarked) [Example 20], the Kb in assay [1] (setting [3]) was 4.57 nM; in assay [1] (setting [4]), 4.27 nM; in assay [2], 13.8 nM. In addition, the ED50 with action of isoprenaline (setting [5]) was determined as 0.07 µmol/kg; with action of isoprenaline (setting [6]), 1 µmol/kg; in the assay with action of isoprenaline (setting [7]), 0.7 µmol/kg.

In the case of `CC(C)(C)NCC(O)CON=C1CCCc2ccccc21` (centres unmarked) [Example 18], the Kb in assay [1] (setting [3]) was 70.8 nM; in assay [1] (setting [4]), 28.8 nM; in assay [2], 0.631 nM. The ED50 was 0.05 µmol/kg in the assay with action of isoprenaline (setting [5]), greater than 1 µmol/kg in the assay on action of isoprenaline (setting [6]) and greater than 1 µmol/kg in the assay on action of isoprenaline (setting [7]).

Take `CC(C)(C)NCC(O)CON=Cc1ccc2ccccc2c1` (centres unmarked) [Example 28]: the Kb in assay [1] (setting [3]) was 35.5 nM; in assay [1] (setting [4]), 32.4 nM; in assay [2], 42.7 nM.

As to `CC(C)NCC(O)CON=C1c2ccccc2-c2ccccc21` (centres unmarked) [Example 9], the Kb in assay [1] (setting [3]) was 40.7 nM; in assay [1] (setting [4]) it was 79.4 nM; in assay [2], 166 nM. In addition, the ED50 in the assay with action of isoprenaline (setting [5]) was 1.3 µmol/kg; in the assay with action of isoprenaline (setting [6]), greater than 17 µmol/kg; in the assay with action of isoprenaline (setting [7]), greater than 17 µmol/kg.

For the molecule `CC(=NOCC(O)CNC(C)(C)C)c1ccccc1` (centres unmarked) [Example 21], the values for the Kb in assay [1] (setting [3]), in assay [1] (setting [4]) and in assay [2] were 200 nM, 117 nM and 24 nM, respectively.

Take `CC(C)NCC(O)CON=Cc1ccc2ccccc2c1` (centres unmarked) [Example 3, 2-naphthalene carbaldehyde-0-(3-isopropylamino-2-hydroxy-propyl)-oxime hydrochloride]: the Kb in assay [1] (setting [3]) is 295 nM; in assay [1] (setting [4]), 115 nM; in assay [2], 0.427 nM.

For the molecule `CC(=NOCC(O)CNC(C)C)c1ccccc1` (centres unmarked) [Example 13], the Kb was 229 nM in assay [1] (setting [3]), 186 nM in assay [1] (setting [4]) and 28.8 nM in assay [2].

Turning to `CC(C)NCC(O)CON=C(c1ccccc1)c1ccccc1` (centres unmarked) [Example 14], the Kb was 162 nM in assay [1] (setting [3]), 191 nM in assay [1] (setting [4]) and 32.4 nM in assay [2].

Regarding `CC(=NOCC(O)CNC(C)(C)C)c1ccc(C)cc1` (centres unmarked) [Example 17], the figures for the Kb in assay [1] (setting [3]), in assay [1] (setting [4]) and in assay [2] were 14.8 nM, 13.8 nM and 12.9 nM, respectively.

As to `CC(C)NCC(O)CON=c1c2ccccc2oc2ccccc12` (centres unmarked) [Example 10], the Kb in assay [1] (setting [3]) was 79.4 nM; in assay [1] (setting [4]) it was 219 nM; in assay [2] it was 155 nM.

Consider `CC(=NOCC(O)CNC(C)(C)C)c1ccc(Cl)cc1` (centres unmarked) [Example 2, 4-chloro-acetophenone-0-(3-tert.butylamino-2-hydroxy-propyl)oxime hydrochloride], for which the Kb in assay [1] (setting [3]) is 26.3 nM; in assay [1] (setting [4]) it was 37.2 nM; in assay [2] it was 245 nM. In addition, the results for the ED50 in the assay with action of isoprenaline (setting [5]), with action of isoprenaline (setting [6]) and in the assay on action of isoprenaline (setting [7]) were 1 µmol/kg, greater than 10 µmol/kg and 10 µmol/kg, respectively.

With `CC(=NOCC(O)CNC(C)(C)C)c1ccccc1C` (centres unmarked) [Example 24], the Kb in assay [1] (setting [3]) is 219 nM; in assay [1] (setting [4]) it was 204 nM; in assay [2], 12.6 nM.

On to `CC(C)(C)NCC(O)CON=C1c2ccccc2-c2ccccc21` (centres unmarked) [Example 1, 9-(3-tert.butylamino-2-hydroxypropoxy)imino-fluorene hydrochloride], for which the values for the ED50 in the assay with action of isoprenaline (setting [5]), with action of isoprenaline (setting [6]) and with action of isoprenaline (setting [7]) were 0.2 µmol/kg, 3 µmol/kg and 3 µmol/kg, respectively.

In the case of `CC(=NOCC(O)CNC(C)(C)C)c1ccc(Br)cc1` (centres unmarked) [Example 25], the Kb in assay [1] (setting [3]) was 26.3 nM; in assay [1] (setting [4]), 12.6 nM; in assay [2], 3.09 nM.

As to `CC(C)NCC(O)CON=C1CCCc2ccccc21` (centres unmarked) [Example 15], the Kb is 676 nM in assay [1] (setting [3]), 759 nM in assay [1] (setting [4]) and 12.6 nM in assay [2].

In the case of `CC(C)NCC(O)CON=Cc1ccccc1` (centres unmarked) [Example 16], the Kb in assay [1] (setting [3]) was 3020 nM; in assay [1] (setting [4]) it was 2400 nM; in assay [2], 129 nM.

`CC(C)(C)NCC(O)CON=C(c1ccccc1)c1ccccc1` (centres unmarked) [Example 4, benzophenone-0-(3-tert.butylamino-2-hydroxy-propyl)-oxime hydrochloride]: the Kb in assay [1] (setting [3]) was 162 nM; in assay [1] (setting [4]), 427 nM; in assay [2], 11 nM.

Values taken from patent US4038317A, “O-aminoalkyl oximes” (Seperic, priority 1975, dated 1977).
